Like-named read-outs stand apart in the source and are kept apart here.

Assay [1] addresses IDH1-R132H recombinant protein (Homo sapiens, UniProt O75874, R132H). Description: IDH1-R132H enzymatic assay (NADPH consumption, diaphorase/resazurin readout). It counts as biochemical. As for the experimental part: (§1) Assays were performed in a 384-well black plate. An aliquot of 250 nL of compound was incubated with 10 μL of 30 nM IDH1-R132H or 10 nM IDH1-R132C recombinant protein in assay buffer (50 mM Tris pH=7.5, 150 mM NaCl, 5 mM MgCl2, 0.1% (w/v) Bovine Serum Albumin, and 0.01% Triton X-100) in each well at 25° C. for 15 minutes. After the plate was centrifuged briefly, an aliquot of 10 μL of 2 mM α-ketoglutarate and 20 μM NADPH solution prepared in assay buffer was then added to each well and the reaction was maintained at 25° C. for 45 minutes. An aliquot of 10 μL of diaphorase solution (0.15 U/mL diaphorase and 30 μM Resazurin in assay buffer) was added to each well. […] The IC50 of a given compound was calculated by fitting the dose response curve of inhibition of NADPH consumption at a given concentration with the four parameter logistic equation.

In assay [2] the target is IDH1-R132C recombinant protein (Homo sapiens, UniProt O75874, R132C). Description: IDH1-R132C enzymatic assay (NADPH consumption, diaphorase/resazurin readout). Conditions: read-out: Enzyme IDH1 R132C IC50 Range. It counts as biochemical. The method, then: as §1
Chain of IDH1-R132C recombinant protein (O75874 whole entry R132C): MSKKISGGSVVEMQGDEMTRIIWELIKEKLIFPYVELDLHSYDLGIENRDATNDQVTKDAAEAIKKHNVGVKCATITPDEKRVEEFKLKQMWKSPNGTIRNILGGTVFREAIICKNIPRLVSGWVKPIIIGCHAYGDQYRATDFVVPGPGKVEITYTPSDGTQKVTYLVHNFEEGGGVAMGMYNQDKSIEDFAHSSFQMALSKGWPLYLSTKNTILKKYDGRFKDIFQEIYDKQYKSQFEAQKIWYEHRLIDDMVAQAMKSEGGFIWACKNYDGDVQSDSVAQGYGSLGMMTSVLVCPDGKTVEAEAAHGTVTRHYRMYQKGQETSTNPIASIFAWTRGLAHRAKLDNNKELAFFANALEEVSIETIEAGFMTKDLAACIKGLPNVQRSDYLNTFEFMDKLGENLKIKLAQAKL
Where [3] appears, read: read-out: Enzyme IDH1 R132H IC50 Range.

Chain of IDH1-R132H recombinant protein (O75874 whole entry R132H): as the sequence (O75874 whole entry R132C) above, with C132H counted along it

As for `COc1cc(NCc2cc3cc(Cl)c(OCc4ccccn4)cc3[nH]c2=O)ccc1C#N` [Compound I-58, 4-({[6-chloro-2-oxo-7-(pyridin-2-ylmethoxy)-1,2-dihydroquinolin-3-yl]methyl}amino)-2-methoxybenzonitrile], the results for the IC50 in assay [1] (setting [3]) and in assay [2] were 10 to 100 nM and 100 to 1000 nM, respectively.

In the case of `COc1cc(NCc2cc3cc(Cl)c(OCc4cccnc4)cc3[nH]c2=O)ccc1C#N` [Compound I-62, 4-({[6-chloro-2-oxo-7-(pyridin-3-ylmethoxy)-1,2-dihydroquinolin-3-yl]methyl}amino)-2-methoxybenzonitrile], the IC50 is 10 to 100 nM in assay [1] (setting [3]) and more than 1000 nM in assay [2].

`COc1cc(NCc2cc3cc(Cl)c(OCCN4CCOCC4)cc3[nH]c2=O)ccc1C#N` [Compound I-60, 4-[({6-chloro-7-[2-(morpholin-4-yl)ethoxy]-2-oxo-1,2-dihydroquinolin-3-yl}methyl)amino]-2-methoxybenzonitrile]: in assay [2], the IC50 lay in the range of 100 to 1000 nM.

Regarding `N#Cc1ccc(NCc2cc3cc(Cl)ccc3[nH]c2=O)cc1F` [Compound I-37, 4-{[(6-chloro-2-oxo-1,2-dihydroquinolin-3-yl)methyl]amino}-2-fluorobenzonitrile], the IC50 in assay [1] was in the range of 100 to 1000 nM.

For the compound `CCOCCOc1cc2[nH]c(=O)c(CNc3ccc(C#N)c(OC)c3)cc2cc1Cl` [Compound I-93, 4-({[6-chloro-7-(2-ethoxyethoxy)-2-oxo-1,2-dihydroquinolin-3-yl]methyl}amino)-2-methoxybenzonitrile], in assay [1] (setting [3]), the IC50 fell in the range of 100 to 1000 nM.

For the compound `COc1cc(NCc2cc3ccccc3[nH]c2=O)ccc1-n1cnnn1` [Compound I-48, 3-({[3-methoxy-4-(1H-1,2,3,4-tetrazol-1-yl)phenyl]amino}methyl)-1,2-dihydroquinolin-2-one], the IC50 in assay [1] (setting [3]) was more than 1000 nM.

With `Cc1cc2cc(CNc3ccc(-n4cnnn4)cc3)c(=O)[nH]c2cc1C` [Compound I-51, 6,7-dimethyl-3-({[4-(1H-1,2,3,4-tetrazol-1-yl)phenyl]amino}methyl)-1,2-dihydroquinolin-2-one], the IC50 in assay [1] (setting [3]) was more than 1000 nM.

Turning to `COc1ccc2cc(CNc3ccc(C#N)c(OC)c3)c(=O)[nH]c2c1` [Compound I-56, 2-methoxy-4-{[(7-methoxy-2-oxo-1,2-dihydroquinolin-3-yl)methyl]amino}benzonitrile], the IC50 in assay [1] (setting [3]) was 100 to 1000 nM.

Turning to `COc1cc(NCc2cc3cccnc3[nH]c2=O)ccc1C#N` [Compound I-31, 2-methoxy-4-{[(2-oxo-1,2-dihydro-1,8-naphthyridin-3-yl)methyl]amino}benzonitrile], the IC50 in assay [1] (setting [3]) was more than 1000 nM.

In the case of `COc1cc(NCc2cc3cc(C)ccc3[nH]c2=O)ccc1-n1cnc(C)c1` [Compound I-18, 3-({[3-methoxy-4-(4-methyl-1H-imidazol-1-yl)phenyl]amino}methyl)-6-methyl-1,2-dihydroquinolin-2-one], in assay [1] (setting [3]), the IC50 is more than 1000 nM.

Take `COc1cc(C#N)ccc1NCc1cc2cc(Cl)ccc2[nH]c1=O` [Compound I-34, 4-{[(6-chloro-2-oxo-1,2-dihydroquinolin-3-yl)methyl]amino}-3-methoxybenzonitrile]: in assay [1] (setting [3]), the IC50 fell in the range of 100 to 1000 nM.

Turning to `COc1cc(NCc2cc3cc(Cl)ccc3[nH]c2=O)ccc1Cl` [Compound I-44, 6-chloro-3-{[(4-chloro-3-methoxyphenyl)amino]methyl}-1,2-dihydroquinolin-2-one], the IC50 in assay [1] (setting [3]) was more than 1000 nM.

With `CCOc1cc(NCc2cc3cc(Cl)ccc3[nH]c2=O)ccc1C#N` [Compound I-13, 4-{[(6-chloro-2-oxo-1,2-dihydroquinolin-3-yl)methyl]amino}-2-ethoxybenzonitrile], in assay [1] (setting [3]), the IC50 is 100 to 1000 nM.

`N#CCc1cccc(NCc2cc3cc(Cl)ccc3[nH]c2=O)c1` [Compound I-45, 2-(3-{[(6-chloro-2-oxo-1,2-dihydroquinolin-3-yl)methyl]amino}phenyl)acetonitrile]: the IC50 in assay [1] (setting [3]) was more than 1000 nM.

On to `COc1cc(N[C@@H](C)c2cc3cc(Cl)ccc3[nH]c2=O)ccc1S(C)(=O)=O` [Compound I-6, 6-chloro-3-[(1S)-1-[(4-methanesulfonyl-3-methoxyphenyl)amino]ethyl]-1,2-dihydroquinolin-2-one], for which, in assay [1] (setting [3]), the IC50 was more than 1000 nM.

The values are drawn from patent publication US10266495B2, “Phenyl quinolinone derivatives as mutant-isocitrate dehydrogenase inhibitors” (FORMA TM2, Inc., priority 2014, dated 2019).
